# How the values were obtained:
# [1] = system: Thr75 of DARPP-32 (Cdk5 site); assay: DARPP-32 phospho-Thr75 immunoblot in neostriatal slices; format: cell-based, mouse
# Procedure: Neostriatal slices were prepared from male C57/BL6 mice (6–8 weeks old) in accordance with methods known in the art (Nishi, A. et al. 1997, J. Neurosci. 17:8147–8155). Slices were treated with a drug. After drug treatment, slices were immediately frozen in liquid nitrogen, and stored at −80° C. until assayed.
# Frozen slices were sonicated in hot homogenization buffer containing 1% SDS and 50 mM NaF, and samples were boiled for 10 minutes. SDS-PAGE sample buffer was then added and samples were boiled for 5 minutes. Samples (approximately 120 μg of total protein) were separated by SDS-PAGE (10% polyacrylamide) and then transferred to nitrocellulose. In most studies, immunoblots were first probed with anti-phospho-Ser137 DARPP-32 antibody. The blots were then stripped and probed with anti-phospho-Thr75 DARPP-32 antibody. Blots were stripped again and probed with anti-total DARPP-32 antibody. […] Chemiluminescence was detected by autoradiography and bands were quantified by analysis of scanned images using NIH IMAGE 1.52 software. Data were statistically analyzed by Student's t test in Microsoft EXCEL™ software as indicated.
# Neostriatal slices were prepared from male C57/BL6 mice (6–8 weeks old) as disclosed (22). Slices were treated with drugs as specified in the text and figure legends. After drug treatment, slices were immediately frozen in liquid nitrogen, and stored at −80° C. until assayed.
# Frozen slices were sonicated in hot homogenization buffer containing 1% SDS and 50 mM NaF, and samples were boiled for 10 min. SDS-PAGE sample buffer was then added and samples were boiled for 5 min. Samples (approximately 120 μg protein) were separated by SDS-PAGE (10% polyacrylamide) and transferred to nitrocellulose. Immunoblots were first probed with antiphospho-Ser-137 DARPP-32 antibody. The blots were stripped and probed with anti-phosphoThr-75 DARPP-32 antibody. Blots were stripped again and probed with anti-total DARPP-32 antibody. Antibody binding was detected by enhanced chemiluminescence (ECL) using X-ray film, and images were analyzed by laser scanning densitometry using NIH Image 1.52 software. Data were statistically analyzed by Student's t-test using Microsoft EXCEL™ software as indicated.
# [2] = system: HA-tagged CK1ε; assay: kinase activity of HA-CK1ε immunoprecipitated from transfected N2a cells, DARPP-32 as substrate; format: cell-based
# Procedure: Neuroblastoma N2a cells were cultured in DMEM containing 5% fetal bovine serum (FBS) to 50–60% confluency. Four micrograms of the expression plasmid for HA-CK1ε were transfected into N2a cells in 100 mm dishes using FuGENE™ 6. Twenty-four hours after transfection, cells were incubated in phosphate-buffered Krebs-Henseleit solution (Sigma) for 10 minutes at room temperature. Cells were then incubated with or without CKI inhibitor for 30 minutes before treating with the group I mGluR agonist (S)-3,5-DHPG (100 μM) for 2 minutes. Cells were then lysed in one ml of lysis buffer containing 1% Nonidet P-40 (NP-40), 150 mM NaCl, 0.1% SDS, 50 mM Tris (pH 8.0), 5 mM Na3VO4, 20 mM NaF, 20 mM β-glycerol-phosphate and protease inhibitors. Lysates were centrifuged at 10,000 g and supernatants were used for immunoprecipitation and kinase assay.
# For immunoprecipitation of CKI from N2a cells, lysates (1 mg of total protein) were pre-cleared with 5 μl of mouse IgG and 50 μl of protein A agarose for 30 minutes. Five μl of anti-HA antibody were added and samples were incubated for 1 hour at 4° C. Five μl of anti-mouse rabbit IgG and 50 μl of protein A agarose were then added for 45 minutes. Immuno-complexes were washed three times in lysis buffer, two times in kinase buffer (30 mM Hepes (pH 7.5), 7 mM MgCl2, 0.5 mM DTT). CKI assays were performed in a 30 μl assay volume with 2 μg of purified DARPP-32, 500 μM ATP and 5 μCi γ-^32P-ATP. Samples were incubated at 30° C. for 20 minutes, reactions were stopped by addition of SDS-sample buffer, and samples were boiled for 5 minutes. Samples were separated by SDS-PAGE (12% polyacrylamide). SDS-PAGE gels were dried and exposed to Kodak film for autoradiography. Bands were quantified by analysis using a Molecular Dynamics PhosphorImager.
# Neuroblastoma N2a cells were cultured to 50–60% confluence in DMEM containing 5% fetal bovine serum. Four μg of the expression plasmid for HA-CK1ε or myc-MM2-CK1ε was transfected into N2a cells in 100 mm dishes using FuGENE6™. Twenty-four hours after transfection, cells were incubated at room temperature in phosphate-buffered Kreb's-Henseleit solution (Sigma) for 10 min and then with or without inhibitors for 30 min before treating with (S)-3,5-DHPG, for 2 min. Cells were then lysed in 1 ml of radio-immunoprecipitation (RIPA) buffer containing 1% NP-40, 150 mM NaCl, 0.1% SDS, 50 mM Tris, pH 8.0, 5 mM Na3VO4, 20 mM NaF, 20 mM β-glycerol-phosphate and protease inhibitors. Lysates were centrifuged at 10,000 g, and supernatants were used for immunoprecipitation and kinase assay.
# For immunoprecipitation of CK1ε from N2a cells, lysates (1 mg of total protein) were precleared with 5 μl of mouse IgG (ICN) and 50 μl of protein A agarose for 30 min. Five μl (approximately 2 μg) of anti-HA or anti-myc antibody was added and samples were incubated for 1 h at 4° C. Five μl of anti-mouse rabbit IgG and 50 μl of protein A agarose were then added for 45 min. Immuno-complexes were washed 3 times in lysis buffer and 2 times in kinase buffer (30 mM Hepes, pH 7.5, 7 mM MgCl2, 0.5 mM DTT).
# CK1 assays were performed in a 30 μl assay volume with 2 μg of purified DARPP-32, 500 μM ATP and 5 μCi γ-^32P-ATP. Reactions were started by addition of the ATP. Samples were incubated at 30° C. for 10 min and reactions were stopped by addition of SDS-sample buffer and boiled for 5 min. Samples were separated by SDS-PAGE (12% polyacrylamide). SDS-PAGE gels were dried and exposed to Kodak film for autoradiography. Results were quantified using a Molecular Dynamics PHOSPHORIMAGER™. Immunoprecipitation and assay of Cdk5 were performed as disclosed (20).
SMILES,"effect on basal or DHPG-stimulated DARPP-32 phosphorylation at Thr75 ([1]; 50 μM CKI-7, 30 min before DHPG 2 min)","effect on basal and DHPG-stimulated DARPP-32 phosphorylation at Thr75 ([1]; CKI-7 100 to 300 μM, 30 min before DHPG 2 min)","effect of pre-incubation on the ability of DHPG to increase CK1ε activity ([2]; 30 min before DHPG 100 μM 2 min, CKI-7 100 μM, L-AP3 100 μM, U73122 10 μM, BAPTA/AM 20 μM, cyclosporin A 1 μM)","increase in phosphorylation of Thr75 ([1]; DHPG 100 μM, group I mGluR activation)","effect on phosphorylation of Thr75 in DARPP-32 ([1]; slices treated with drug alone: DHPG 100 μM, ionomycin 2 μM)",effect on CK1ε activity ([2]; DHPG 100 μM for 2 min),increase in CKI activity compared to the basal level ([2]; DHPG 100 μM for 2 minutes)
NCCNS(=O)(=O)c1ccc(Cl)c2ccncc12 [CKI-7],little effect,dose-dependent decreases,blocked,–,–,–,–
"N[C@H](C(=O)O)c1cc(O)cc(O)c1 [DHPG, (S)-3,5-Dihydroxyphenylglycine]",–,–,–,2–3 fold,rapid but transient increase,increase,approximately 2 fold
